Measurements: the NIST ThermoML archive (doi:10.1016/j.jct.2014.07.026)
± gives the expanded uncertainty stated by the source.

Experiments:
[1] = 298.15 K; 100 kPa; Liquid; Frequency=2 MHz; Linear variable-path acoustic interferometer
[2] = mn = molality of the nth substance listed, in mol/kg; conditions: 298.15 K; 100 kPa; Liquid; Frequency=2 MHz; Linear variable-path acoustic interferometer; m2 = 0

| Compound | speed of sound [1] | speed of sound [2] |
| --- | --- | --- |
| O [water] | 1497.7 ± 2.5 m/s | – |
| O [water] + CC(C)C[C@H](N)C(=O)[O-].CCCCn1cc[n+](C)c1 | – | 1497.6 ± 2.5 m/s |
| O [water] + CC(C)[C@H](N)C(=O)[O-].CCCCn1cc[n+](C)c1 | – | 1497.6 ± 2.5 m/s |
| O [water] + CCCCn1cc[n+](C)c1.CC[C@H](C)[C@H](N)C(=O)[O-] | – | 1497.8 ± 2.5 m/s |

Continued, values first:

| speed of sound [1] | speed of sound [2] | Compound |
| --- | --- | --- |
| – | 1497.8 ± 2.5 m/s | O [water] + CCCCn1cc[n+](C)c1.C[C@H](N)C(=O)[O-] |
| – | 1497.6 ± 2.5 m/s | O [water] + CCCCn1cc[n+](C)c1.NCC(=O)[O-] |
